The source of these data is PubChem BioAssay (NCI).

Values joined by “and” are separate entries in the source; they are usually repeats but may differ in a detail not shown here. Equal values may be shown once.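 Tested at 5 concentrations; 48 h exposure; 96-well plates; endpoints linearly interpolated, else capped at highest concentration. Here, GI50 denotes the concentration required for 50% inhibition of growth. At the TGI there is no net growth.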 Where only a bound is given, the exact number is not on record here.

Experiment in all cases: NCI anticancer screen, dose series, 48 h
Assay [1] concerns SF-295 CNS.
Assay [2] relates to HT29 colon.
Assay [3] has as its system NCI-H226 lung.
Assay [4] relates to CAKI-1 renal.
Assay [5] relates to SK-MEL-5 melanoma.
The subject of assay [6] is A498 renal.
Assay [7] concerns ACHN renal.
Assay [8] concerns OVCAR-5 ovarian.
In assay [9] the test system is UACC-257 melanoma.
Assay [10] has as its system HS 578T breast.

As for `c1cnc2c(c1)-n1cccc1C1(CCOCC1)NN2`, the TGI in assay [1], in assay [2], in assay [3], in [4], in assay [5] and in assay [6] was above 100 µM in each case. For the same compound, the TGI in assay [7] was above 100 µM.
For the compound `CN1CC(c2ccccc2)=Cc2c1ccc(N)c2N=N`, the TGI in [8] is above 100 µM; in assay [9] it was above 100 µM; in [1] it was above 100 µM; in assay [2], above 100 µM; in assay [3], above 100 µM; in [4], 67.9 µM. For the same compound, the TGI in assay [5], in assay [10] and in assay [7] was above 100 µM throughout.
As for `Cc1cc(-c2ccc(C(=O)C(Cl)(Cl)Cl)[nH]2)on1`, the TGI in assay [8] was 73 µM; in assay [9], above 100 µM; in assay [1], above 100 µM; in assay [2] it was 76.8 µM; in assay [3], 62.9 µM; in [4], 36.7 µM. Further, the TGI in assay [5], in assay [6] and in assay [7] was above 100 µM in each case.
For the compound `CCOC(=O)c1nc2c3c(ncn2n1)Oc1c(c(-c2ccccc2)nn1-c1ccccc1)C3c1ccc(OC)c(OC)c1` (stereo unspecified), the TGI in assay [8], in [9], in [1], in assay [2], in [4] and in assay [5] was above 100 µM in each case. Moreover, the TGI is 38 µM in assay [10] and above 100 µM in [7].
Consider `CC(C)(C)C1CC[C@H]2c3c([nH]c4ccc(Br)cc34)[C@H]3C(=O)N(c4ccccc4)C(=O)[C@H]3[C@H]2C1` (stereo partly specified), for which the TGI in assay [8] was above 100 µM; in assay [9] it was above 100 µM; in [1], 43.1 µM; in assay [2], above 100 µM; in [3] it was 81.8 µM; in [4] it was above 100 µM. Besides, the TGI in [5] and in assay [7] was above 100 µM in each case.
As to `Oc1c(Cl)c2nccnc2c2ccccc12`, the TGI in assay [8], in assay [9], in [1], in [2], in assay [3] and in assay [5] was above 100 µM in each case. The TGI in [6] and in [7] was above 100 µM each time.
For the compound `CS(=O)(=O)NNS(=O)(=O)c1ccc(Br)cc1`, the TGI in assay [8], in assay [9], in [2], in assay [3], in assay [4] and in assay [5] was above 100 µM each time. The TGI in assay [6] and in assay [7] was above 100 µM throughout.
Consider `COc1ccc(-c2nc3ncccn3c2-c2ccc(S(C)=O)cc2)cc1` (stereo unspecified), for which the TGI was above 100 µM in assay [8]; above 100 µM in assay [9]; above 100 µM in assay [1]; above 100 µM in assay [2]; 65.4 µM in [4]; above 100 µM in assay [5]. The TGI in assay [10] and in [7] was above 100 µM each time.
As to `c1ccc2[nH]c(-c3nc4ccccc4o3)nc2c1`, the TGI in [8], in assay [9], in [1], in assay [2], in [3] and in assay [5] was above 100 µM each time. The TGI in assay [6] and in [7] was above 100 µM each time.
Take `COc1ccc(-n2sc3ncc(-c4ccccc4)cc3c2=O)cc1`: the TGI is 74 µM in [8]; above 100 µM in assay [9]; above 100 µM in assay [1]; above 100 µM in [3]; 67.3 µM in assay [4]; above 100 µM in assay [5]. Further, the figures for the TGI in assay [6] and in assay [7] were above 100 µM and 48.3 µM, respectively.
With `O=C(CCN1CCCCC1CCO)Nc1ccc2c(c1)C(=O)c1ccc(NC(=O)CCN3CCCCC3CCO)cc1C2=O` (stereo unspecified), the TGI in assay [8] is 61.2 µM; in assay [9], 20.6 µM; in assay [1] it was 33.9 µM; in assay [2] it was 20.6 µM; in assay [3], 22.1 µM; in [4], 57.5 µM. Moreover, the TGI is 21.5 µM in [5], 8.45 µM in assay [6] and 24.9 µM in assay [7].
Consider `N#CI1OC(=O)c2ccccc21`, for which the TGI in assay [8], in assay [9], in assay [1], in [2], in [3] and in [4] was above 100 µM each time. In addition, the TGI in assay [5], in [6] and in assay [7] was above 100 µM in each case.
Turning to `COC(=O)c1ccc(CN2CCc3c([nH]c4ccccc34)C2CO)o1` (stereo unspecified), the TGI in assay [9], in [1], in assay [2], in assay [4] and in assay [5] was above 10 µM in each case.
For the compound `C=C1CC2CC[C@@]34C[C@@H]5O[C@@H]6C(O[C@H]7CC[C@H](CC(=O)OC8[C@@H](C)C9OC%10C[C@]%11(C[C@@H]%12O[C@@]%13(C[C@@H](C)[C@@H]%12O%11)C[C@H](C)[C@@H]%11OC%12CC(C(O)CO)OC%12C[C@@H]%11O%13)OC%10CC9O[C@H]8C[C@H]8O[C@@H](CC[C@@H]1O2)C[C@@H](C)C8=C)O[C@@H]7[C@@H]6O3)C5O4` (stereo partly specified), the GI50 is above 1.48 µM in [8]; below 0.000148 µM in [1]; below 0.000148 µM in [2]; below 0.000148 µM in assay [3]; below 0.000148 µM in assay [4]; below 0.000148 µM in assay [6]. The TGI is above 1.48 µM in assay [8]; 0.00266 µM and 0.000528 µM in assay [1]; 0.00784 µM and 0.00321 µM in [2]; above 1.48 µM in [4]; 0.00591 µM in assay [5]; 0.0167 µM in assay [6].
`CCOC(=O)c1ccc(NC2Oc3cc4c(cc3C(c3cc(OC)c(OC)c(OC)c3)C2C)OCO4)cc1` (stereo unspecified): the TGI was above 100 µM in assay [8]; above 100 µM in [9]; 2.9 µM in assay [1]; 12.9 µM in assay [2]; 16 µM in assay [3]; 0.786 µM in assay [4]. In addition, the TGI was 1.49 µM in assay [5], above 100 µM in [6] and above 63.4 µM in assay [7].
For `O=S(=O)(O)c1cc(Cl)c(O)c2ncc(Cl)cc12`, the TGI in [8], in assay [9], in [1], in assay [2], in assay [3] and in assay [4] was above 100 µM each time. Further, the TGI in assay [5], in assay [6] and in [7] was above 100 µM in each case.
In the case of `On1c(-c2ccccc2)c(-c2c(-c3ccccc3)n(O)c3ccccc23)c2ccccc21`, the TGI in assay [9] was 88.9 µM; in assay [1], 61.9 µM; in assay [2] it was above 100 µM; in assay [3], 64.7 µM; in assay [5], 50 µM; in assay [7], 87.5 µM.
With `O=C1Nc2ccccc2C(=O)OC(Cc2ccccc2)=Nc2ccccc21`, the TGI in assay [8], in assay [9], in assay [1], in assay [2], in assay [3] and in [4] was above 100 µM each time. In addition, the TGI in [5] and in assay [7] was above 100 µM each time.
Turning to `CN(C)[C@@H]1C(=O)C(C(N)=O)=C(O)[C@@]2(O)C(=O)C3=C(O)c4c(O)cccc4C[C@H]3C[C@@H]12`, the TGI is 3.22 µM in [1]; 4.3 µM in [4]; 3.63 µM in [5]; 4.56 µM in assay [6]; 14.3 µM in assay [7].
As for `COC(=O)/C(=C/c1ccc(OC)cc1)C(C(=O)O)=C(C)C`, the TGI in assay [8], in [9], in assay [1], in assay [2], in assay [3] and in [4] was above 100 µM each time. Besides, the TGI in [5] and in assay [6] was above 100 µM throughout.
As for `CN(NC(=O)c1ccco1)C1=NCCCCN1`, the TGI in assay [8], in assay [9], in assay [1], in [2], in assay [3] and in assay [5] was above 100 µM in each case. Moreover, the TGI in assay [10] and in [7] was above 100 µM throughout.
`COc1cc2c(cc1O)[C@H](C)C(c1ccc(Cl)cc1)O2` (stereo partly specified): the TGI was above 100 µM in assay [8]; above 100 µM in assay [9]; 82.6 µM in assay [1]; above 100 µM in assay [2]; 70 µM in [3]; 49.2 µM in [4]. Also, the TGI was 31.8 µM in assay [5], above 100 µM in [6] and 27.8 µM in assay [7].
Turning to `C=CCN1C(=O)CS/C1=N\NC(=O)c1c(C)nc2sccn12`, the TGI in assay [8], in [9], in [1], in [2], in assay [3] and in [4] was above 100 µM each time. Further, the TGI in assay [5] and in assay [7] was above 100 µM throughout.
